Values belong to the molecule of their own block, whether it stands above or below them.
System: K98450-129-R-PDC multicell spheroids, viability
Experiment: Anticancer human tumor K98450-129-R-PDC patient-derived colon adenocarcinoma cell line growth inhibition [PI3K]
Settings: for viability, T/C: stronger effect = lower value
From the text: Combinatorial screen of targeted agents with the PI3K inhibitors inavolisib, alpelisib, duvelisib, and copanlisib in multi-cell type tumor spheroids
A high-throughput screen of multi-cell type tumor spheroids was designed to identify active combinations of targeted small molecules and PI3K pathway inhibitors. Complex spheroids include a stromal component modeled by human endothelial cells (HUVEC) and fibroblasts modeled by human mesenchymal stem cells (MSCs). The concentration ranges selected for each drug and investigational agent were based upon clinically achievable concentrations if the clinical Cmax of the agent was known.
Compounds. The drugs and investigational agents: inavolisib (NSC800729), alpelisib (NSC765974), duvelisib (NSC772469), copanlisib (NSC816437), ipatasertib (NSC767898), afuresertib (NSC778305), talazoparib (NSC767125), sapanisertib (NSC764658), selumetinib (NSC741078), tovorafenib (DAY101, NSC766906), vemurafenib (NSC761431), ravoxertinib (NSC781343), sotorasib (NSC818433), MRTX1133 (NSC 836407), abemaciclib (NSC 768073), palbociclib (NSC758247), venetoclax (NSC 766270), SY5609 (NSC837396), enzalutamide (NSC755605), and darolutamide (NSC825331), were obtained from the National Cancer Institute (NCI) Developmental Therapeutics Program Chemical Repository. The FDA-approved anticancer drug set is available from the NCI Developmental Therapeutics Program. […] The stock solutions were prepared in dimethyl sulfoxide (DMSO, Sigma-Aldrich, St. Louis, MO, cat. D2650) at 800-fold the tested concentration and stored at -70 degrees C prior to their use. All drugs and investigational agents were tested over a range starting from a high concentration at or near the clinical Cmax and decreasing in half-log increments. If the clinical Cmax for an agent had not been determined, the highest concentration tested was 10 microM.
Cell Culture. All cells were maintained in an incubator at 37 degrees C and 5% CO2 with 95% humidity. The PDC lines were cultured according to standard operating procedures established by the NCI PDMR (https://pdmr.cancer.gov/sops/default.htm). All PDCs were thawed and cultured in Matrigel-coated flasks prepared with a working solution of 1X Ham's F-12 nutrient mix, without supplementation (Invitrogen, Waltham, MA, cat. 11765054), 100 U/mL penicillin-streptomycin (Invitrogen, cat. 15140122), and 2.5% Matrigel (Corning Inc., Corning, NY, cat. 354248) for the first three passages. The 354836-022-R-J1-PDC, 475296-252-R-J1-PDC, and 997726-040-R-J2-PDC lines were cultured in 6A media, which includes advanced DMEM/F-12 (Thermo Fisher Scientific, cat. 12634028), 10 mM HEPES (Thermo Fisher Scientific, cat. 15630080), 1X GlutaMAX supplement (Thermo Fisher Scientific, cat. 35050061), 0.1 mg/mL primocin (InvivoGen, San Diego, CA, cat. ant-pm-2), 10% defined fetal bovine serum, heat inactivated (HyClone Laboratories Inc., Logan, UT, cat. SH30070.03HI), 50% L-WRN conditioned media (ATCC, cat. CRL-3276), 1.25 mM N-Acetyl-L-cysteine (Sigma-Aldrich, cat. A9165), 10 mM nicotinamide (Sigma-Aldrich, cat. N0636), 1X B-27 supplement (Thermo Fisher Scientific, cat. 17504044), 1X N-2 supplement (Thermo Fisher Scientific, cat. 17502048), and 10 microM Y-27632 dihydrochloride (Tocris Bioscience, Bristol, United Kingdom, cat. 1254). The 624824-186-R-J2-PDC line was cultured in 6C/Colon 1B media, which includes all 6A media components plus 50 ng/mL human EGF recombinant protein (Thermo Fisher Scientific, cat. PHG0311). […]

[1] = curve of first compound, second compound 0.0316 µM
[2] = curve of first compound, second compound 0.1 µM
[3] = curve of first compound, second compound 0.316 µM
[4] = curve of first compound, second compound 1 µM
[5] = second compound 0.0316 µM, first compound 0.0316 µM
[6] = second compound 0.0316 µM, first compound 0.1 µM
[7] = second compound 0.1 µM, first compound 0.0316 µM
[8] = second compound 0.1 µM, first compound 0.1 µM
[9] = second compound 0.316 µM, first compound 0.0316 µM
[10] = second compound 0.316 µM, first compound 0.1 µM
[11] = second compound 1 µM, first compound 0.0316 µM
[12] = second compound 1 µM, first compound 0.1 µM
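Also: spheroids exposed to agents for seven days before read-out.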

IC50 (curve of first compound, second compound 0.00316 µM): > 10 µM
IC50 (curve of first compound, second compound 0.01 µM): > 10 µM
IC50 [1]: > 10 µM
IC50 [2]: > 10 µM
IC50 [3]: > 10 µM
IC50 [4]: > 10 µM
SMILES: CNC(=O)c1ccc(N2C(=S)N(c3ccc(C#N)c(C(F)(F)F)c3)C(=O)C2(C)C)cc1F + CC(Nc1ccc2c(c1)OCCn1cc(N3C(=O)OCC3C(F)F)nc1-2)C(N)=O
viability, T/C (second compound 0.00316 µM, first compound 0.0316 µM): 108%
viability, T/C (second compound 0.00316 µM, first compound 0.1 µM): 102%
viability, T/C (second compound 0.00316 µM, first compound 0.316 µM): 107%
viability, T/C (second compound 0.00316 µM, first compound 1 µM): 107%
viability, T/C (second compound 0.00316 µM, first compound 3.16 µM): 110%
viability, T/C (second compound 0.00316 µM, first compound 10 µM): 120%
viability, T/C (second compound 0.01 µM, first compound 0.0316 µM): 115%
viability, T/C (second compound 0.01 µM, first compound 0.1 µM): 100%
viability, T/C (second compound 0.01 µM, first compound 0.316 µM): 107%
viability, T/C (second compound 0.01 µM, first compound 1 µM): 101%
viability, T/C (second compound 0.01 µM, first compound 3.16 µM): 108%
viability, T/C (second compound 0.01 µM, first compound 10 µM): 117%
viability, T/C [5]: 106%
viability, T/C [6]: 101%
viability, T/C (second compound 0.0316 µM, first compound 0.316 µM): 94.5%
viability, T/C (second compound 0.0316 µM, first compound 1 µM): 103%
viability, T/C (second compound 0.0316 µM, first compound 3.16 µM): 112%
viability, T/C (second compound 0.0316 µM, first compound 10 µM): 112%
viability, T/C [7]: 94.1%
viability, T/C [8]: 93.9%
viability, T/C (second compound 0.1 µM, first compound 0.316 µM): 103%
viability, T/C (second compound 0.1 µM, first compound 1 µM): 98.2%
viability, T/C (second compound 0.1 µM, first compound 3.16 µM): 105%
viability, T/C (second compound 0.1 µM, first compound 10 µM): 110%
viability, T/C [9]: 94.7%
viability, T/C [10]: 96.8%
viability, T/C (second compound 0.316 µM, first compound 0.316 µM): 99.6%
viability, T/C (second compound 0.316 µM, first compound 1 µM): 96.8%
viability, T/C (second compound 0.316 µM, first compound 3.16 µM): 102%
viability, T/C (second compound 0.316 µM, first compound 10 µM): 102%
viability, T/C [11]: 83.9%
viability, T/C [12]: 100%
viability, T/C (second compound 1 µM, first compound 0.316 µM): 94.9%
viability, T/C (second compound 1 µM, first compound 1 µM): 92.1%
viability, T/C (second compound 1 µM, first compound 3.16 µM): 98.6%
viability, T/C (second compound 1 µM, first compound 10 µM): 106%

IC50 (curve of compound): > 10 µM
SMILES: C[C@@H](NC(=O)c1ncnc(N)c1Cl)c1ncc(C(=O)Nc2cc(C(F)(F)F)c(Cl)cn2)s1
viability, T/C (compound 0.0316 µM): 108% [middle of 4 runs]
viability, T/C (compound 0.1 µM): 110% [middle of 4 runs]
viability, T/C (compound 0.316 µM): 119% [middle of 4 runs]
viability, T/C (compound 1 µM): 122% [middle of 4 runs]
viability, T/C (compound 3.16 µM): 120% [middle of 4 runs]
viability, T/C (compound 10 µM): 109% [middle of 4 runs]

IC50 [1]: > 0.1 µM
IC50 [2]: > 0.1 µM
IC50 [3]: > 0.1 µM
IC50 [4]: > 0.1 µM
IC50 (curve of first compound, second compound 3.16 µM): > 0.1 µM
IC50 (curve of first compound, second compound 10 µM): > 0.1 µM
SMILES: CC(=O)c1c(C)c2cnc(Nc3ccc(N4CCNCC4)cn3)nc2n(C2CCCC2)c1=O + Cc1nc(NC(=O)N2CCCC2C(N)=O)sc1-c1ccnc(C(C)(C)C(F)(F)F)c1
viability, T/C (second compound 0.0316 µM, first compound 0.000316 µM): 110%
viability, T/C (second compound 0.0316 µM, first compound 0.001 µM): 101%
viability, T/C (second compound 0.0316 µM, first compound 0.00316 µM): 104%
viability, T/C (second compound 0.0316 µM, first compound 0.01 µM): 104%
viability, T/C [5]: 100%
viability, T/C [6]: 97.9%
viability, T/C (second compound 0.1 µM, first compound 0.000316 µM): 108%
viability, T/C (second compound 0.1 µM, first compound 0.001 µM): 95.2%
viability, T/C (second compound 0.1 µM, first compound 0.00316 µM): 97.9%
viability, T/C (second compound 0.1 µM, first compound 0.01 µM): 93.7%
viability, T/C [7]: 106%
viability, T/C [8]: 98%
viability, T/C (second compound 0.316 µM, first compound 0.000316 µM): 104%
viability, T/C (second compound 0.316 µM, first compound 0.001 µM): 107%
viability, T/C (second compound 0.316 µM, first compound 0.00316 µM): 95.3%
viability, T/C (second compound 0.316 µM, first compound 0.01 µM): 93.3%
viability, T/C [9]: 103%
viability, T/C [10]: 99%
viability, T/C (second compound 1 µM, first compound 0.000316 µM): 90%
viability, T/C (second compound 1 µM, first compound 0.001 µM): 92.9%
viability, T/C (second compound 1 µM, first compound 0.00316 µM): 91.3%
viability, T/C (second compound 1 µM, first compound 0.01 µM): 89.7%
viability, T/C [11]: 98.8%
viability, T/C [12]: 95.9%
viability, T/C (second compound 3.16 µM, first compound 0.000316 µM): 88.2%
viability, T/C (second compound 3.16 µM, first compound 0.001 µM): 86.8%
viability, T/C (second compound 3.16 µM, first compound 0.00316 µM): 84.6%
viability, T/C (second compound 3.16 µM, first compound 0.01 µM): 86.3%
viability, T/C (second compound 3.16 µM, first compound 0.0316 µM): 92.1%
viability, T/C (second compound 3.16 µM, first compound 0.1 µM): 86.3%
viability, T/C (second compound 10 µM, first compound 0.000316 µM): 79.4%
viability, T/C (second compound 10 µM, first compound 0.001 µM): 74.6%
viability, T/C (second compound 10 µM, first compound 0.00316 µM): 77.3%
viability, T/C (second compound 10 µM, first compound 0.01 µM): 79.8%
viability, T/C (second compound 10 µM, first compound 0.0316 µM): 80.9%
viability, T/C (second compound 10 µM, first compound 0.1 µM): 70.3%

Source: PubChem BioAssay AID1963961 (Molecular Pharmacology Branch, DTP, NCI, 2024)
